# From patent publication US10023560B2, “Crystalline salt form of (S)-(2-(6 chloro-7-methyl-1H-benzo[d]imidazol-2-yl)-2-methylpyrrolidin-1-yl)(5-methoxy-2-(2H-1,2,3-triazol-2-yl)phenyl)methanone as orexin receptor antagonist” (priority 2013, dated 2018)
# What was measured:
# mouse = mouse model of depression, administered chronically; cited from earlier work
# humans = conditions: indication primary insomnia; cited from earlier work
# rat [1] = conditions: animal model of conditioned fear; cited from earlier work
# rats [2] = conditions: cited from earlier work
# rat [3] = conditions: rat model; cited from earlier work
# rat [4] = conditions: cited from earlier work
# rats [5] = conditions: rats treated with the compound; cited from earlier work
# [6] = tested on: amyloid precursor protein transgenic mice; conditions: after acute sleep restriction; cited from earlier work
# fasted hungry rats = fasted hungry rats exposed to food odors; cited from earlier work
# [7] = Gravimetric vapour sorption (GVS) analysis; type: physicochemical
# Description: Gravimetric Vapour Sorption (GVS) Analysis
# The sample was allowed to equilibrate at 40% RH before starting a pre-defined humidity program (40-0-95-0-95-40% RH, steps of 5% ΔRH and with a maximal equilibration time of 24 hours per step were applied. About 20 to 30 mg of each sample was used. The hygroscopic classification is done according to the European Pharmacopeia Technical Guide (1999, page 86), e.g., slightly hygroscopic: increase in mass is less than 2% and equal to or greater than 0.2% mass/mass; hygroscopic: increase in mass is less than 15% and equal to or greater than 2% mass/mass. The mass change between 40% relative humidity and 80% relative humidity in the first adsorption scan is considered.
# Wistar rats = test: Sedative effects: EEG, EMG and behavioural indices of alertness by radiotelemetry; type: in vivo; conditions: 30 mg/kg po, effects analyzed over 6 hours
# Description: Sedative Effects: EEG, EMG and Behavioural Indices of Alertness Recorded by Radiotelemetry In Vivo in Wistar Rats.
# Electroencephalography (EEG) and Electromyography (EMG) signals were measured by telemetry using TL11M2-F20-EET miniature radiotelemetric implants (Data Science Int.) with two pairs of differential leads.
# Surgical implantation was performed under general anesthesia with Ketamin/Xylazin, for cranial placement of one differential pair of EEG electrodes and one pair of EMG leads inserted in either side of the muscles of the neck. After surgery, rats recovered in a thermoregulated chamber and received analgesic treatment with subcutaneous buprenorphine twice a day for 2 d. They were then housed individually and allowed to recover for a minimum of 2 weeks. Thereafter, rats—in their home cage—were placed in a ventilated sound-attenuating box, on a 12-h light/12-h dark cycle, for acclimatization before continuous EEG/EMG recordings started. The telemetric technology that we used in this study allows accurate and stress-free acquisition of biosignals in rats placed in their familiar home cage environment, with no recording leads restricting their movements. Variables analyzed included four different stages of vigilance and sleep, spontaneous activity in the home cage and body temperature. Sleep and wake stages were evaluated using a rodent scoring software (Somnologica Science) directly processing electrical biosignals on 10 s contiguous epochs. The scoring is based on frequency estimation for EEG and amplitude discrimination for EMG and locomotor activity. Using these measurements, the software determines the probability that all components within each epoch best represent active waking (AW), quiet waking (QW), non-REM-sleep (NREM) or REM-sleep (REM). The percentage of total time spent in AW, QW, NREM- and REM-sleep was calculated per 12 h light or dark period. The latency to the onset of the first significant NREM- and REM-sleep episodes and the frequency and duration of those episodes were also calculated. […] All variables were subsequently recorded for 12 h following administration of the orexin receptor antagonist.
# rodents [8] = conditions: induced by repeated amphetamine administration in rodents; cited from earlier work
# rodents [9] = conditions: cited from earlier work
compound,measurement,setting,value
"CNC(=O)[C@@H](c1ccccc1)N1CCc2cc(OC)c(OC)cc2[C@@H]1CCc1ccc(C(F)(F)F)cc1 [(2R)-2-{(1S)-6,7-dimethoxy-1-[2-(4-trifluoromethyl-phenyl)-ethyl]-3,4-dihydro-1H-isoquinolin-2-yl}-N-methyl-2-phenyl-acetamide]",antidepressant-like activity,mouse,induce antidepressant-like activity
same,clinical efficacy,humans,showed clinical efficacy
same,activity in rat fear-potentiated startle paradigm,rat [1],active
same,cardiovascular responses to conditioned fear and novelty exposure,rats [2],attenuated
same,activity in nicotine self-administration,rat [3],displayed pharmacological activity
same,alertness (active wake and locomotion),rat [4],decrease alertness
same,time spent in REM and NREM sleep,rat [4],dose-dependently increase
same,declarative and non-declarative learning and memory,rats [5],intact
same,brain levels of amyloid-beta (Aβ) and Aβ plaque deposition,[6],decreased
same,natural activation induced by orexin A,fasted hungry rats,attenuate
"COc1ccc(-n2nccn2)c(C(=O)N2CCC[C@@]2(C)c2nc3ccc(Cl)c(C)c3[nH]2)c1.Cl [COMPOUND hydrochloride, (S)-(2-(6-chloro-7-methyl-1H-benzo[d]imidazol-2-yl)-2-methylpyrrolidin-1-yl)(5-methoxy-2-(2H-1,2,3-triazol-2-yl)phenyl)methanone hydrochloride]",Hygroscopicity classification,"[7]; 25° C., European Pharmacopeia Technical Guide classification",Non hygroscopic (mass change smaller then
same,Hygroscopicity: mass change,"[7]; between 40% and 80% relative humidity, first adsorption scan, 25° C.",< 0.1%
same,Sorption behavior between cycles,[7]; first to second cycle,"Reproducible, cycle independent"
"COc1ccc(-n2nccn2)c(C(=O)N2CCC[C@@]2(C)c2nc3c(C)c(Cl)ccc3[nH]2)c1 [COMPOUND, (S)-(2-(6-chloro-7-methyl-1H-benzo[d]imidazol-2-yl)-2-methylpyrrolidin-1-yl)(5-methoxy-2-(2H-1,2,3-triazol-2-yl)phenyl)methanone]",Hygroscopicity: sorption of moisture,"[7]; humidity program 40-0-95-0-95-40% RH, 25° C.",≤ 2.7 % moisture mass/mass
same,effect on NREM sleep compared to vehicle controls,Wistar rats,+27%
same,effect on REM sleep compared to vehicle controls,Wistar rats,+53%
same,effect on active wake compared to vehicle controls,Wistar rats,−24%
same,effect on home cage activity compared to vehicle controls,Wistar rats,−31%
Cn1c(SCC(=O)N2CCC[C@H]2C(=O)Nc2ccccc2-c2ccccc2)nc2ccccc21 [N-biphenyl-2-yl-1-{[(1-methyl-1H-benzimidazol-2-yl)sulfanyl]acetyl}-L-prolinamide],behavioral (locomotor sensitization) and molecular (transcriptional responses) changes,rodents [8],reduced
same,nicotine-reinstatement for a conditioned reinforcer,rodents [9],inhibited
